≈ marks a conversion by molar mass, not a printed value.
Columns and labels:
Assay in all cases: in vitro antibacterial evaluation, MIC by broth dilution
Assay type in all cases: cell-based
[1] = test system: Escherichia coli; details: 18 hours at 35° C.
In short: (§1)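 Broth dilution per NCCLS M7-A2 in Mueller-Hinton II medium, inoculum 5×10^5 CFU/mL, antibiotic range 64-0.06 μg/mL. MIC taken as lowest concentration inhibiting growth; Gram-positive panel includes recent clinical isolates resistant to methicillin, penicillin and/or vancomycin.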

[2] = test system: Streptococcus sp.; details: broth dilution, 18 hours at 35° C.
In short: as §1

[3] = test system: Staphylococcus sp.; details: broth dilution, 18 hours at 35° C.
In short: as §1

[4] = test system: Enterococcus sp.; details: broth dilution, 18 hours at 35° C.
In short: as §1

SMILES: CC(c1ccccc1)C1NC(=O)CNC(=O)C(CO)NC(=O)C(C(O)C2CNC(=N)N2C2OC(CO)C(O)C(O)C2O)NC(=O)C(C(O)C2CNC(=N)N2)NC(=O)C(Cc2ccc(OC3OC(CO)C(OC4OC5COC(CC67CC8CC(CC(C8)C6)C7)OC5C(O)C4O)C(O)C3O)cc2)NC1=O (stereo not shown) [Example 129]
- MIC Escherichia coli (ATCC 25922) ([1]; strain ATCC 25922): 32 µg/mL (≈ 22 µM)
- MIC Escherichia coli (GC 4559) ([1]; strain GC 4559): 32 µg/mL (≈ 22 µM)
- MIC Escherichia coli (GC 4560) ([1]; strain GC 4560): 2 µg/mL (≈ 1.37 µM)
- MIC Streptococcus agalactiae (GC 4564) ([2]; Streptococcus agalactiae (GC 4564)): <0.06 µg/mL
- MIC Streptococcus pneumoniae (ATCC 6301) ([2]; Streptococcus pneumoniae (ATCC 6301)): <0.06 µg/mL
- MIC Streptococcus pneumoniae (GC 1894) ([2]; Streptococcus pneumoniae (GC 1894)): <0.06 µg/mL
- MIC Streptococcus pneumoniae (GC 4565) ([2]; Streptococcus pneumoniae (GC 4565)): <0.06 µg/mL
- MIC Streptococcus pyogenes (GC 4563) ([2]; Streptococcus pyogenes (GC 4563)): <0.06 µg/mL
- MIC Streptococcus pneumoniae (ATCC 6301) ([2]; strain ATCC 6301): <0.06 µg/mL
- MIC Streptococcus pneumoniae (GC 1894) ([2]; strain GC 1894): <0.06 µg/mL
- MIC Streptococcus pyogenes (GC 4563) ([2]; strain GC 4563): <0.06 µg/mL
- MIC Streptococcus agalactiae (GC 4564) ([2]; strain GC 4564): <0.06 µg/mL
- MIC Streptococcus pneumoniae (GC 4565) ([2]; strain GC 4565): <0.06 µg/mL
- MIC Staphylococcus aureus (ATCC 29213) [3]: 4 µg/mL (≈ 2.75 µM)
- MIC Staphylococcus aureus (GC 1131) [3]: 2 µg/mL (≈ 1.37 µM)
- MIC Staphylococcus aureus (GC 3051) [3]: 2 µg/mL (≈ 1.37 µM)
- MIC Staphylococcus aureus (GC 3053) [3]: 2 µg/mL (≈ 1.37 µM)
- MIC Staphylococcus aureus (GC 4541) [3]: 2 µg/mL (≈ 1.37 µM)
- MIC Staphylococcus aureus (GC 4542) [3]: 2 µg/mL (≈ 1.37 µM)
- MIC Staphylococcus aureus (GC 4544) [3]: 2 µg/mL (≈ 1.37 µM)
- MIC Staphylococcus aureus (GC 4545) [3]: 2 µg/mL (≈ 1.37 µM)
- MIC Staphylococcus aureus (GC 1131) ([3]; inoculum 5×10^5 CFU/mL, strain GC 1131): 2 µg/mL (≈ 1.37 µM)
- MIC Staphylococcus aureus (ATCC 29213) ([3]; strain ATCC 29213): 4 µg/mL (≈ 2.75 µM)
- MIC Staphylococcus aureus (GC 3051) ([3]; strain GC 3051): 2 µg/mL (≈ 1.37 µM)
- MIC Staphylococcus aureus (GC 3053) ([3]; strain GC 3053): 2 µg/mL (≈ 1.37 µM)
- MIC Staphylococcus aureus (GC 4541) ([3]; strain GC 4541): 2 µg/mL (≈ 1.37 µM)
- MIC Staphylococcus aureus (GC 4542) ([3]; strain GC 4542): 2 µg/mL (≈ 1.37 µM)
- MIC Staphylococcus aureus-SMITH (GC 4543) ([3]; strain GC 4543): 2 µg/mL (≈ 1.37 µM)
- MIC Staphylococcus aureus (GC 4544) ([3]; strain GC 4544): 2 µg/mL (≈ 1.37 µM)
- MIC Staphylococcus aureus (GC 4545) ([3]; strain GC 4545): 2 µg/mL (≈ 1.37 µM)
- MIC Staphylococcus haemolyticus (GC 4546) ([3]; strain GC 4546): 2 µg/mL (≈ 1.37 µM)
- MIC Coagulase Negative Staphylococcus (GC 4547) ([3]; strain GC 4547): 2 µg/mL (≈ 1.37 µM)
- MIC Coagulase Negative Staphylococcus (GC 4548) ([3]; strain GC 4548): 1 µg/mL (≈ 0.687 µM)
- MIC Coagulase Negative Staphylococcus (GC 4549) ([3]; strain GC 4549): 1 µg/mL (≈ 0.687 µM)
- MIC Coagulase Negative Staphylococcus (GC 4551) ([3]; strain GC 4551): 4 µg/mL (≈ 2.75 µM)
- MIC Coagulase Negative Staphylococcus (GC 6257) ([3]; strain GC 6257): 1 µg/mL (≈ 0.687 µM)
- MIC Staphylococcus aureus-SMITH (GC 4543) ([3]; strain SMITH GC 4543): 2 µg/mL (≈ 1.37 µM)
- MIC Enterococcus avium (GC 4558) ([4]; Enterococcus avium (GC 4558)): 2 µg/mL (≈ 1.37 µM)
- MIC Enterococcus faecalis (ATCC 29212) ([4]; Enterococcus faecalis (ATCC 29212)): 2 µg/mL (≈ 1.37 µM)
- MIC Enterococcus faecalis (GC 2242) ([4]; Enterococcus faecalis (GC 2242)): 2 µg/mL (≈ 1.37 µM)
- MIC Enterococcus faecalis (GC 2691) ([4]; Enterococcus faecalis (GC 2691)): 2 µg/mL (≈ 1.37 µM)
- MIC Enterococcus faecalis (GC 3059) ([4]; Enterococcus faecalis (GC 3059)): 2 µg/mL (≈ 1.37 µM)
- MIC Enterococcus faecalis (GC 4552) ([4]; Enterococcus faecalis (GC 4552)): 2 µg/mL (≈ 1.37 µM)
- MIC Enterococcus faecalis (GC 4553) ([4]; Enterococcus faecalis (GC 4553)): 2 µg/mL (≈ 1.37 µM)
- MIC Enterococcus faecalis (GC 4554) ([4]; Enterococcus faecalis (GC 4554)): 2 µg/mL (≈ 1.37 µM)
- MIC Enterococcus faecalis (GC 6189) ([4]; Enterococcus faecalis (GC 6189)): 2 µg/mL (≈ 1.37 µM)
- MIC Enterococcus faecium (GC 2243) ([4]; Enterococcus faecium (GC 2243)): 2 µg/mL (≈ 1.37 µM)
- MIC Enterococcus faecium (GC 4556) ([4]; Enterococcus faecium (GC 4556)): 2 µg/mL (≈ 1.37 µM)
- MIC Enterococcus faecium (GC 4557) ([4]; Enterococcus faecium (GC 4557)): 2 µg/mL (≈ 1.37 µM)
- MIC Enterococcus faecalis (ATCC 29212) ([4]; strain ATCC 29212): 2 µg/mL (≈ 1.37 µM)
- MIC Enterococcus faecalis (GC 2242) ([4]; strain GC 2242): 2 µg/mL (≈ 1.37 µM)
- MIC Enterococcus faecium (GC 2243) ([4]; strain GC 2243): 2 µg/mL (≈ 1.37 µM)
- MIC Enterococcus faecalis (GC 2691) ([4]; strain GC 2691): 2 µg/mL (≈ 1.37 µM)
- MIC Enterococcus faecalis (GC 3059) ([4]; strain GC 3059): 2 µg/mL (≈ 1.37 µM)
- MIC Enterococcus faecalis (GC 4552) ([4]; strain GC 4552): 2 µg/mL (≈ 1.37 µM)
- MIC Enterococcus faecalis (GC 4553) ([4]; strain GC 4553): 2 µg/mL (≈ 1.37 µM)
- MIC Enterococcus faecalis (GC 4554) ([4]; strain GC 4554): 2 µg/mL (≈ 1.37 µM)
- MIC Enterococcus faecium (GC 4556) ([4]; strain GC 4556): 2 µg/mL (≈ 1.37 µM)
- MIC Enterococcus faecium (GC 4557) ([4]; strain GC 4557): 2 µg/mL (≈ 1.37 µM)
- MIC Enterococcus avium (GC 4558) ([4]; strain GC 4558): 2 µg/mL (≈ 1.37 µM)
- MIC Enterococcus faecalis (GC 6189) ([4]; strain GC 6189): 2 µg/mL (≈ 1.37 µM)

Source: patent US6914045B2, “Glycopeptide antibiotics” (Wyeth Holdings Corporation, priority 2001, dated 2005)
